From patent publication US20260240179A1, “EDIBLE COMPOSITIONS AND METHODS FOR THE PRESERVATION OF FRUITS AND VEGETABLES” (ONYX LOTUS, LLC, priority 2023, published 2026)
Values joined by “and” are separate entries in the source; they are usually repeats but may differ in a detail not shown here. Equal entries are not always repeated.

Assays:
Java plums = assay: Weight of dipped Java plums over time (moisture retention and freshness)
Method: Starting with two sets of java plums, each set containing eight plums, a control set is dipped in 95% ethanol and placed at room temperature and 50% Relative humidity. A second set, the treatment set, is dipped in a zein composition consisting of 100 mL 95% Ethanol+6 g zein powder. […] were weighed on days 1, 2, 3, 4, 6, 7. Weights were taken to approximate moisture retention and freshness. After 7 days, average weight loss of control (no zein applied) Java plums was 28.5% compared to 23.6% weight loss for zein treatment. Java plums treated with zein retained 17.2% more moisture compared to untreated plums.

blueberries = assay: Weight of dipped blueberries over time (moisture retention and freshness)
[1] = single fruit samples, zein dip (6 g in 100 mL 95% ethanol), 23-25° C., Day 1

Substance: zein
- average weight loss (Java plums; Java plums, after 7 days, dipped in 100 mL 95% ethanol+6 g zein powder, control 28.5%): 23.6%
- more moisture retained compared to untreated plums (Java plums; Java plums, after 7 days, zein dip): 17.2%
- Weight of Java plums, Day 1 (Java plums; [1]): 15.82 grams and 15.19 grams and 11.63 grams and 11.83 grams and 16.16 grams and 14.65 grams and 14.35 grams and 12.88 grams
- Weight of Java plums, Day 2 (Java plums; zein dip, 23-25° C., Day 2): 15.03 grams and 14.42 grams and 10.79 grams and 11.19 grams and 13.65 grams and 13.13 grams and 13.63 grams and 12.24 grams
- Weight of Java plums, Day 3 (Java plums; zein dip, 23-25° C., Day 3): 14.46 grams and 13.88 grams and 10.33 grams and 10.72 grams and 12.96 grams and 19.13 grams and 11.78 grams
- Weight of Java plums, Day 4 (Java plums; zein dip, 23-25° C., Day 4): 13.72 grams and 13.16 grams and 9.72 grams and 9.12 grams and 12.36 grams and 12.67 grams and 11.18 grams
- Weight of Java plums, Day 6 (Java plums; zein dip, 23-25° C., Day 6): 12.53 grams and 12.02 grams and 8.73 grams and 11.33 grams and 11.39 grams and 10.2 grams
- Weight of Java plums, Day 7 (Java plums; zein dip, 23-25° C., Day 7): 12.15 grams and 11.66 grams and 8.4 grams and 11 grams and 11.03 grams and 9.87 grams
- average weight loss (blueberries; blueberries, after nine days, dipped in 100 mL 95% ethanol+6 g zein powder, control 43.1%): 37.2%
- more moisture retained compared to untreated berries (blueberries; blueberries, after nine days, zein dip): 13.7%
- Weight of blueberries, Day 1 (blueberries; [1]): 1.6 grams and 1.79 grams and 1.62 grams and 1.71 grams and 1.7 grams
- Weight of blueberries, Day 2 (blueberries; zein dip, 23-25° C., Day 2): 1.52 grams and 1.7 grams and 1.53 grams and 1.63 grams
- Weight of blueberries, Day 3 (blueberries; zein dip, 23-25° C., Day 3): 1.44 grams and 1.6 grams and 1.54 grams and 1.55 grams
- Weight of blueberries, Day 5 (blueberries; zein dip, 23-25° C., Day 5): 1.3 grams and 1.65 grams and 1.99 grams and 1.63 grams
- Weight of blueberries, Day 6 (blueberries; zein dip, 23-25° C., Day 6): 1.23 grams and 1.22 grams and 1.37 grams and 1.32 grams and 1.36 grams
- Weight of blueberries, Day 7 (blueberries; zein dip, 23-25° C., Day 7): 1.16 grams and 1.31 grams and 1.26 grams and 1.3 grams
- Weight of blueberries, Day 8 (blueberries; zein dip, 23-25° C., Day 8): 1.09 grams and 1.1 grams and 1.26 grams and 1.19 grams
- Weight of blueberries, Day 11 (blueberries; zein dip, 23-25° C., Day 11): 1.06 grams and 1.2 grams and 1.15 grams and 1.19 grams
- Weight of blueberries, Day 12 (blueberries; zein dip, 23-25° C., Day 12): 0.97 grams and 0.98 grams and 1.12 grams and 1.08 grams and 1.13 grams
- Weight of blueberries, Day 13 (blueberries; zein dip, 23-25° C., Day 13): 0.85 grams and 0.86 grams and 1.01 grams and 0.97 grams
- Weight of blueberries, Day 14 (blueberries; zein dip, 23-25° C., Day 14): 0.82 grams and 0.832 grams and 0.98 grams and 0.94 grams
